This is an account of results in US20230117034A1, “PYRAZOLOTRIAZINES” (Bayer Aktiengesellschaft, priority 2019, published 2023).

pIC50: −log10 of the molar value.

The target in experiment [1] is T1, CYCLIN K (nuclear staining in CAL-120 cells) (Homo sapiens, UniProt O75909).
T1 construct: endogenous in cells; host or cells: CAL-120 human breast cancer cells (DSMZ ACC 459)
Description: CYCLIN K nuclear protein level: immunofluorescence high content analysis (CAL-120). Type of experiment: cell-based. Particulars: 24 h, 50% reduction of nuclear CCNK staining intensity, median, read-out: CYCLIN K degradation IF, DC50-[mol/l] (median). Summed up:
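CAL-120 breast cancer cells treated in dose-response for 24 h at 37 °C, PFA-fixed and immunostained for cyclin K with Hoechst counterstain. Confocal imaging quantified nuclear intensity; DC50 is the concentration giving 50% reduction of nuclear CCNK staining, normalized to DMSO and control.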

The test system of experiment [2] is BRCA1 mRNA expression in MDA-MB-231 cells. Description: qRT-PCR assay: BRCA1 mRNA expression in MDA-MB-231. It is filed as cell-based, human. As to conditions: Homo sapiens, MDA-MB-231, Inhibition of BRCA1 mRNA expression in MDA-MB-231 cells; median; read-out: RTqPCR-MDA-MB-231, IC50, BRCA1 (median). Summed up:
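MDA-MB-231 cells, 200,000/well, treated 24 h after plating with continuous 24 h compound exposure. RNA extracted, 600 ng reverse-transcribed, BRCA1 measured by RT-qPCR normalized to GAPDH.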
On the technique in general: In qPCR the cycle at which signal appears reflects the starting amount.

Experiment [3] deals with T2, CDK12 (nuclear staining in CAL-120 cells) (Homo sapiens, UniProt Q9NYV4).
T2 construct: endogenous in cells; host or cells: CAL-120 human breast cancer cells (DSMZ ACC 459)
T2 sequence (Q9NYV4 whole entry): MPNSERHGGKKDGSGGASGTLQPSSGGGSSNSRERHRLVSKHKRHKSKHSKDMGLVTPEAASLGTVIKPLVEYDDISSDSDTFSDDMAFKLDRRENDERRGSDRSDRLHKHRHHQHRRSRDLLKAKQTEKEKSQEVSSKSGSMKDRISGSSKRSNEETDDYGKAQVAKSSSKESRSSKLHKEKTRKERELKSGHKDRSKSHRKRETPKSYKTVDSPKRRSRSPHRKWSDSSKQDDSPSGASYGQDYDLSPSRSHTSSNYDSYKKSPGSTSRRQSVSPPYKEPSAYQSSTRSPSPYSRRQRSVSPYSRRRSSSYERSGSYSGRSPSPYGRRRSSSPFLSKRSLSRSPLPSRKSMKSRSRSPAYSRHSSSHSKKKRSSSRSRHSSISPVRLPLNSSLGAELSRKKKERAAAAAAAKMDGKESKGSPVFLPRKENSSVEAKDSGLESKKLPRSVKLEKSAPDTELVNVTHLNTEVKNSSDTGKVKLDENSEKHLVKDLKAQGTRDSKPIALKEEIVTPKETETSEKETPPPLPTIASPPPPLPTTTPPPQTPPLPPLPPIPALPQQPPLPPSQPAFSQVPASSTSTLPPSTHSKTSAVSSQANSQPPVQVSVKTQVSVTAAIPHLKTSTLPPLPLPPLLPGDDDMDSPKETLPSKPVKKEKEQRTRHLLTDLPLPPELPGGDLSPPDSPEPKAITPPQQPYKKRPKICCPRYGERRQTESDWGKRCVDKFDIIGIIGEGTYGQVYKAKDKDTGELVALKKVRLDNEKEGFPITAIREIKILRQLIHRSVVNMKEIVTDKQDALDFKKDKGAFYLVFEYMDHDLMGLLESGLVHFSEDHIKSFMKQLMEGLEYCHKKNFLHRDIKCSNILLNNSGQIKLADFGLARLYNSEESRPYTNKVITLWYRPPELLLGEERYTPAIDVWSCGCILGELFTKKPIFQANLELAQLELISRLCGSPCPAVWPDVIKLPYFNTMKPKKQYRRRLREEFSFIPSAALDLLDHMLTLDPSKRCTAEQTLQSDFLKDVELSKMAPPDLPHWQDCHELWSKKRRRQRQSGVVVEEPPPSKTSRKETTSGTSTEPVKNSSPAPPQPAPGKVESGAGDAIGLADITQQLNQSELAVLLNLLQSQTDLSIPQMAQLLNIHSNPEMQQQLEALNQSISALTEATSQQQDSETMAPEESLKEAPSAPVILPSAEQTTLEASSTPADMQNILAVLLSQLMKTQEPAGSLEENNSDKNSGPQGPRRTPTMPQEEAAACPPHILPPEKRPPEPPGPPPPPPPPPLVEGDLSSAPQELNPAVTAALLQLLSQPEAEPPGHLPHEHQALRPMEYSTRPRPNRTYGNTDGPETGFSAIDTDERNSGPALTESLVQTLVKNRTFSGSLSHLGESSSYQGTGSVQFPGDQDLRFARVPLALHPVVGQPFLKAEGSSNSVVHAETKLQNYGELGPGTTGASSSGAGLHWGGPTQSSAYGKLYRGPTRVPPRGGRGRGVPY
T2 sequence (O75909 whole entry partner): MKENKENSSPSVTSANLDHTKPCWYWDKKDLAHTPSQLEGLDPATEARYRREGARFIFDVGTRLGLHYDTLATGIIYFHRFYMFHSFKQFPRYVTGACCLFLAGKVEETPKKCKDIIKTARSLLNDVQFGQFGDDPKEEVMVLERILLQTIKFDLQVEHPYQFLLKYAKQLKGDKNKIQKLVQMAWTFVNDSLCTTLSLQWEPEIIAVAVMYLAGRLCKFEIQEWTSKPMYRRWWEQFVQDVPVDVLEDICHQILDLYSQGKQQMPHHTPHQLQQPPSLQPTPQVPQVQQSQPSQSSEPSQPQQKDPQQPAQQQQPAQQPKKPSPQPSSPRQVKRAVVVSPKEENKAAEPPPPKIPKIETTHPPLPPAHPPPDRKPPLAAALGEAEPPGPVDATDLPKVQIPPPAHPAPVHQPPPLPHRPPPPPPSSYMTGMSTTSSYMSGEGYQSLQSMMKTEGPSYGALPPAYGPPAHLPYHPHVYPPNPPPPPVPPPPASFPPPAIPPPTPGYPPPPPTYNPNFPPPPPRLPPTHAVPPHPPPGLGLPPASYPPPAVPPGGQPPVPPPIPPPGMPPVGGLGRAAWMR
The experiment is described as follows: CDK12 nuclear protein level: immunofluorescence/high content analysis (CAL-120). It is filed as cell-based. As to conditions: for DC50: CAL-120 cells, 24 h, immunofluorescence, 50% reduction of nuclear CDK12 staining intensity, median, read-out: CDK12 degradation IF, DC50- [mol/l] (median); for (IC50 CDK12 high ATP) to (Degradation DC50 CDK12) ratio: ratio of IC50 CDK12 high ATP kinase assay to DC50 CDK12 degradation (IF, CAL-120). Summed up:
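CAL-120 cells were treated with compound for 24 h at 37 °C, fixed with PFA and immunostained for CDK12. Nuclear CDK12 intensity was quantified by automated image analysis and normalized to DMSO and control. DC50 is the concentration giving 50% reduction of nuclear staining.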

The target of a further experiment is T3, CDK9/CycT1 (Homo sapiens, UniProt P50750).
T3 construct: Recombinant full-length His-tagged human CDK9 and CycT1; purchased Life Technologies PV4131; host or cells: insect cells
T3 sequence (P50750 whole entry): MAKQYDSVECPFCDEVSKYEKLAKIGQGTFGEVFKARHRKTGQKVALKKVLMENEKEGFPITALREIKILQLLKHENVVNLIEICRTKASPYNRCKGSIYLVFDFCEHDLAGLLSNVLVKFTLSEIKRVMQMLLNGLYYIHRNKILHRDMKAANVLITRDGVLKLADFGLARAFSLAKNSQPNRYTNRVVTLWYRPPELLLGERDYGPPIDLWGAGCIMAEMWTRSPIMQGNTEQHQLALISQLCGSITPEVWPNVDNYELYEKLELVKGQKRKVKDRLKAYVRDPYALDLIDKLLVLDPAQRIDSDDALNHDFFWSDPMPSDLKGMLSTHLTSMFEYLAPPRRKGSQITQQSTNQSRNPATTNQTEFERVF
T3 sequence (O60563 whole entry partner): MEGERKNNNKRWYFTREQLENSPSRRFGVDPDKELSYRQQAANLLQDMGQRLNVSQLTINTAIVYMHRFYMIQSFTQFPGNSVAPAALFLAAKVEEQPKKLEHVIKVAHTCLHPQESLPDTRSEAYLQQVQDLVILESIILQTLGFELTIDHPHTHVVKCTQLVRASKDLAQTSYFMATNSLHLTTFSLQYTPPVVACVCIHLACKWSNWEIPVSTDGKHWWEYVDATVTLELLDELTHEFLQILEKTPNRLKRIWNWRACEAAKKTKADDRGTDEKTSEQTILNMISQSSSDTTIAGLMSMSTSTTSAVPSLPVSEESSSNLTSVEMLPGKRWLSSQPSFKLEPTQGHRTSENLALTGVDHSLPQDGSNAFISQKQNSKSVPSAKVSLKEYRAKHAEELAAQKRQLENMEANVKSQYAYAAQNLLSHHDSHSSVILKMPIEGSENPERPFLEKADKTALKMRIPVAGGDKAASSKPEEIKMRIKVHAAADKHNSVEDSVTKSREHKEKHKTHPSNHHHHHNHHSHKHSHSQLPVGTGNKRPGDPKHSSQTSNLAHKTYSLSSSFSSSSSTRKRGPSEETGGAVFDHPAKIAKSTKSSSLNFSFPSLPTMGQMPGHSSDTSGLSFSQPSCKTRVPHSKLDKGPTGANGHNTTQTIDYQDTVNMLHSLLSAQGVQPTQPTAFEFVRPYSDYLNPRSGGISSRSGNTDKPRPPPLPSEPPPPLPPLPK
Description: CDK9/CycT1 high ATP kinase assay (TR-FRET, 2 mM ATP). It is filed as biochemical. Particulars: 2 mM ATP (high ATP); median; read-out: CDK9/CyclinT1, 2 mM ATP (high ATP), IC50 (median). An outline of the steps:
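Full-length His-tagged human CDK9/CycT1 (insect cell, ~0.5 μg/mL) preincubated 15 min at 22 °C with compound in Tris pH 8.0, MgCl2, DTT buffer before reaction with biotinylated peptide substrate at high ATP (2 mM).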
In general terms: Time-resolved FRET reads energy transfer from a long-lived donor to a nearby acceptor.

T1 sequence (O75909 whole entry): as the sequence (O75909 whole entry partner) above
T1 sequence (Q9NYV4 whole entry partner): as the sequence (Q9NYV4 whole entry) above

In the case of `Brc1cnn2c(NCc3nnc(-c4ccccc4)[nH]3)nc(N3CCNCC3)nc12.O=CO` [Example 119, 8-bromo-N-[(5-phenyl-4H-1,2,4-triazol-3-yl)methyl]-2-piperazin-1-yl-pyrazolo[1,5-a][1,3,5]triazin-4-amine formate], the figures for the DC50 in experiment [1] and in experiment [3] were 3 nM and 1.54 nM, respectively. Further, the pIC50 in experiment [2] was 7.67; on CDK9/CycT1 it was 5.21. Also, the “(IC50 CDK12 high ATP) to (Degradation DC50 CDK12) ratio” value in experiment [3] worked out at 4303.

Turning to `c1cncc(-c2cnn3c(NCc4nc5ccccc5[nH]4)nc(N4CCOCC4)nc23)c1` [Example 108, N-[(1H-benzimidazol-2-yl)methyl]-2-(morpholin-4-yl)-8-(pyridin-3-yl)pyrazolo[1,5-a][1,3,5]triazin-4-amine], the DC50 was found to be 2.91 nM in experiment [1] and 5.53 nM in experiment [3]. Besides, the results for the pIC50 (in experiment [2]; at CDK9/CycT1) were 7.06 and less than 4.70, respectively. Further, the “(IC50 CDK12 high ATP) to (Degradation DC50 CDK12) ratio” value in experiment [3] is more than 3617.

`Fc1cc(F)cc(-c2nnc(CNc3nc(N4CCOCC4)nc4c(Br)cnn34)[nH]2)c1` [Example 105, 8-bromo-N-{[5-(3,5-difluorophenyl)-4H-1,2,4-triazol-3-yl]methyl}-2-(morpholin-4-yl)pyrazolo[1,5-a][1,3,5]triazin-4-amine]: the DC50 amounted to 0.676 nM in experiment [1] and 2.49 nM in experiment [3]. Further, the pIC50 in experiment [2] is 8.07; on CDK9/CycT1, 6.21. Also, in experiment [3], the “(IC50 CDK12 high ATP) to (Degradation DC50 CDK12) ratio” value stood at 429.

Consider `Brc1cnn2c(NCc3nc4ccccc4[nH]3)nc(N3C[C@@H]4C[C@H]3CO4)nc12` [Example 103, N-[(1H-benzimidazol-2-yl)methyl]-8-bromo-2-[(1S,4S)-2-oxa-5-azabicyclo[2.2.1]heptan-5-yl]pyrazolo[1,5-a][1,3,5]triazin-4-amine], for which the DC50 in experiment [1] is 0.765 nM; in experiment [3] it was 5.36 nM. In addition, the figures for the pIC50 (in experiment [2]; at CDK9/CycT1) were 7.14 and less than 4.70, respectively. The “(IC50 CDK12 high ATP) to (Degradation DC50 CDK12) ratio” value in experiment [3] was determined as 1914.

For the molecule `C[C@@H]1CN(c2nc(NCc3nnc(-c4ccccc4)[nH]3)n3ncc(Br)c3n2)C[C@H](C)N1C` [Example 125, 8-bromo-N-[(5-phenyl-4H-1,2,4-triazol-3-yl)methyl]-2-[(3R,5S)-3,4,5-trimethylpiperazin-1-yl]pyrazolo[1,5-a][1,3,5]triazin-4-amine], the DC50 stood at 1.2 nM in experiment [1] and 6.3 nM in experiment [3]. Also, the pIC50 in experiment [2] is 7.21; at CDK9/CycT1, 5.42. The “(IC50 CDK12 high ATP) to (Degradation DC50 CDK12) ratio” value in experiment [3] worked out at 1724.

On to `CN1CCN(c2nc(NCc3nc4c(F)cccc4[nH]3)n3ncc(C4CC4)c3n2)CC1` [Example 165, 8-cyclopropyl-N-[(4-fluoro-1H-benzimidazol-2-yl)methyl]-2-(4-methylpiperazin-1-yl)pyrazolo[1,5-a][1,3,5]triazin-4-amine], for which the DC50 in experiment [1] is 0.155 nM; in experiment [3] it was 0.405 nM. The pIC50 was 8.63 in experiment [2] and less than 4.70 on CDK9/CycT1. The “(IC50 CDK12 high ATP) to (Degradation DC50 CDK12) ratio” value in experiment [3] came to 25224.

As for `Fc1cccc(-c2nnc(CNc3nc(N4CCNCC4)nc4c(Br)cnn34)[nH]2)c1` [Example 152, 8-bromo-N-{[5-(3-fluorophenyl)-4H-1,2,4-triazol-3-yl]methyl}-2-(piperazin-1-yl)pyrazolo[1,5-a][1,3,5]triazin-4-amine], the DC50 in experiment [1] was 1.11 nM; in experiment [3], 12.7 nM. Also, the pIC50 is 8.37 in experiment [2] and 5.70 on CDK9/CycT1. In addition, in experiment [3], the “(IC50 CDK12 high ATP) to (Degradation DC50 CDK12) ratio” value came to 236.

On to `C[C@@H]1CN(c2nc(NCc3nc4c(F)cccc4[nH]3)n3ncc(Br)c3n2)C[C@H](C)O1` [Example 109, 8-bromo-2-[(2R,6S)-2,6-dimethylmorpholin-4-yl]-N-[(4-fluoro-1H-benzimidazol-2-yl)methyl]pyrazolo[1,5-a][1,3,5]triazin-4-amine], for which the DC50 in experiment [1] was determined as 0.115 nM; in experiment [3], 1.09 nM. For the same molecule, the results for the pIC50 (in experiment [2]; on CDK9/CycT1) were 8.87 and 5.75, respectively. Besides, the “(IC50 CDK12 high ATP) to (Degradation DC50 CDK12) ratio” value in experiment [3] is reported as 162.

On to `Brc1cnn2c(NCc3nc4ccccc4[nH]3)nc(N3CCN4CCC[C@H]4C3)nc12` [Example 148, N-[(1H-benzimidazol-2-yl)methyl]-8-bromo-2-[(8aS)-hexahydropyrrolo[1,2-a]pyrazin-2 (1 H)-yl]pyrazolo[1,5-a][1,3,5]triazin-4-amine], for which the DC50 came to 8.06 nM in experiment [1] and 16 nM in experiment [3]. The pIC50 was 7.06 in experiment [2] and less than 4.70 at CDK9/CycT1. In addition, the “(IC50 CDK12 high ATP) to (Degradation DC50 CDK12) ratio” value in experiment [3] is recorded as 677.

Turning to `Cc1cccc2[nH]c(CNc3nc(N4CCN(C)CC4)nc4c(Br)cnn34)nc12` [Example 151, 8-bromo-N-[(4-methyl-1H-benzimidazol-2-yl)methyl]-2-(4-methylpiperazin-1-yl)pyrazolo[1,5-a][1,3,5]triazin-4-amine], the DC50 came out at 2.45 nM in experiment [1] and 2.07 nM in experiment [3]. The pIC50 is 7.74 in experiment [2] and less than 4.70 on CDK9/CycT1. Besides, in experiment [3], the “(IC50 CDK12 high ATP) to (Degradation DC50 CDK12) ratio” value is 2046.

As for `Fc1ccc(-c2nnc(CNc3nc(N4CCOCC4)nc4c(Br)cnn34)[nH]2)cc1F` [Example 99, 8-bromo-N-{[5-(3,4-difluorophenyl)-4H-1,2,4-triazol-3-yl]methyl}-2-(morpholin-4-yl)pyrazolo[1,5-a][1,3,5]triazin-4-amine], the DC50 in experiment [1] turned out to be 3.05 nM; in experiment [3], 6.7 nM. Besides, the figures for the pIC50 (in experiment [2]; at CDK9/CycT1) were 7.95 and 6.01, respectively.

Take `C[C@@H]1CN(c2nc(NCc3nc4ccccc4[nH]3)n3ncc(Br)c3n2)CCN1C` [Example 135, N-[(1H-benzimidazol-2-yl)methyl]-8-bromo-2-[(3R)-3,4-dimethylpiperazin-1-yl]pyrazolo[1,5-a][1,3,5]triazin-4-amine]: the DC50 worked out at 0.554 nM in experiment [1] and 3.69 nM in experiment [3]. Also, the pIC50 is 7.52 in experiment [2] and less than 4.70 on CDK9/CycT1. In experiment [3], the “(IC50 CDK12 high ATP) to (Degradation DC50 CDK12) ratio” value is 3939.

Take `CN1CCN(c2nc(NCc3nc4c(F)cccc4[nH]3)n3ncc(Br)c3n2)CC1` [Example 126, 8-bromo-N-[(4-fluoro-1H-benzimidazol-2-yl)methyl]-2-(4-methylpiperazin-1-yl)pyrazolo[1,5-a][1,3,5]triazin-4-amine]: the DC50 in experiment [1] amounted to 0.142 nM; in experiment [3], 0.906 nM. Besides, the pIC50 is 8.00 in experiment [2] and less than 4.70 at CDK9/CycT1. Further, the “(IC50 CDK12 high ATP) to (Degradation DC50 CDK12) ratio” value in experiment [3] was determined as 7539.

For `CN1CCN(c2nc(NCc3nc4cc(Cl)ccc4[nH]3)n3ncc(Br)c3n2)CC1` [Example 163, 8-bromo-N-[(5-chloro-1H-benzimidazol-2-yl)methyl]-2-(4-methylpiperazin-1-yl)pyrazolo[1,5-a][1,3,5]triazin-4-amine], the DC50 in experiment [1] is 0.279 nM; in experiment [3], 0.334 nM. For the same molecule, the pIC50 in experiment [2] is 8.99; at CDK9/CycT1, less than 4.70. Also, in experiment [3], the “(IC50 CDK12 high ATP) to (Degradation DC50 CDK12) ratio” value is given as more than 17106.

Consider `Clc1ccc2[nH]c(CNc3nc(N4CCOCC4)nc4c(Br)cnn34)nc2c1` [Example 162, 8-bromo-N-[(5-chloro-1H-benzimidazol-2-yl)methyl]-2-(morpholin-4-yl)pyrazolo[1,5-a][1,3,5]triazin-4-amine], for which the DC50 in experiment [1] is 0.112 nM; in experiment [3], 0.471 nM. The values for the pIC50 (in experiment [2]; on CDK9/CycT1) were 8.96 and 4.76, respectively. Besides, in experiment [3], the “(IC50 CDK12 high ATP) to (Degradation DC50 CDK12) ratio” value was determined as 2160.

Regarding `Cc1ccc2[nH]c(CNc3nc(N4CCOCC4)nc4c(Br)cnn34)nc2c1` [Example 157, 8-bromo-N-[(5-methyl-1H-benzimidazol-2-yl)methyl]-2-(morpholin-4-yl)pyrazolo[1,5-a][1,3,5]triazin-4-amine], the DC50 in experiment [1] is 0.119 nM; in experiment [3], 0.62 nM. Further, the pIC50 was 9.04 in experiment [2] and less than 4.70 at CDK9/CycT1. For the same molecule, in experiment [3], the “(IC50 CDK12 high ATP) to (Degradation DC50 CDK12) ratio” value worked out at 1089.

Turning to `Brc1cnn2c(NCc3nc4ccccc4[nH]3)nc(N3CCOCC3)nc12` [Example 4, N-[(1H-benzimidazol-2-yl)methyl]-8-bromo-2-(morpholin-4-yl)pyrazolo[1,5-a][1,3,5]triazin-4-amine], the DC50 in experiment [1] is 2.46 nM; in experiment [3], 1.07 nM. Further, the pIC50 is 8.15 in experiment [2] and less than 4.70 at CDK9/CycT1. Moreover, in experiment [3], the “(IC50 CDK12 high ATP) to (Degradation DC50 CDK12) ratio” value came to 1628.
